Experimental data published in PubChem BioAssay AID342 (DTP/NCI, 2004).
Values joined by “and” are separate entries in the source; they are usually repeats but may differ in a detail not shown here. Equal values may be shown once.

Test system: Swiss mice, Sarcoma 180 sc, mean tumor weight T/C
Assay: NCI In Vivo Anticancer Drug Screen. Data for tumor model Sarcoma 180 (subcutaneous) in Swiss mice
Conditions: endpoint: mean tumor weight, higher = larger tumour
Method in brief: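 Readout is the ratio of treated-group measurement to vehicle-control measurement (T/C), based on survival or tumor size in mice carrying transplanted tumors.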

[1] = dose: 10.0 mg/kg/injection, schedule: Q#A X014 (ip), vehicle: methylcellulose (MC)
[2] = dose: 15.0 mg/kg/injection, schedule: Q#A X014 (ip), vehicle: methylcellulose (MC)
[3] = dose: 125.0 mg/kg/injection, schedule: Q01DX007 (ip), vehicle: saline

CC(=O)OCC(=O)[C@@]1(O)CC[C@H]2[C@@H]3C=C(C)C4=CC(=O)CC[C@]4(C)[C@H]3[C@@H](O)C[C@@]21C
T/C (dose: 6.1 mg/kg/injection, schedule: Q01DX007 (sc), vehicle: steriod suspending solution): 67 % of control
T/C [1]: 49 % of control
T/C (dose: 11.8 mg/kg/injection, schedule: Q01DX007 (sc), vehicle: steriod suspending solution): 43 % of control
T/C (dose: 12.5 mg/kg/injection, schedule: Q01DX007 (sc), vehicle: steriod suspending solution): 50 % of control
T/C [2]: 41 % of control and 44 % of control
T/C (dose: 17.7 mg/kg/injection, schedule: Q01DX007 (sc), vehicle: steriod suspending solution): 40 % of control
T/C (dose: 20.0 mg/kg/injection, schedule: Q01DX007 (sc), vehicle: steriod suspending solution): 83 % of control
T/C (dose: 22.5 mg/kg/injection, schedule: Q#A X014 (ip), vehicle: methylcellulose (MC)): 60 % of control and 64 % of control
T/C (dose: 25.0 mg/kg/injection, schedule: Q01DX007 (sc), vehicle: steriod suspending solution): 39 % of control
T/C (dose: 26.6 mg/kg/injection, schedule: Q01DX007 (sc), vehicle: steriod suspending solution): 52 % of control
T/C (dose: 30.0 mg/kg/injection, schedule: Q01DX007 (sc), vehicle: steriod suspending solution): 55 % of control
T/C (dose: 33.75 mg/kg/injection, schedule: Q#A X014 (ip), vehicle: methylcellulose (MC)): 31 % of control and 54 % of control
T/C (dose: 40.0 mg/kg/injection, schedule: Q01DX007 (sc), vehicle: steriod suspending solution): 41 % of control
T/C (dose: 45.0 mg/kg/injection, schedule: Q01DX007 (sc), vehicle: steriod suspending solution): 58 % of control and 64 % of control
T/C (dose: 53.0 mg/kg/injection, schedule: Q01DX007 (sc), vehicle: steriod suspending solution): 71 % of control
T/C (dose: 60.0 mg/kg/injection, schedule: Q01DX007 (sc), vehicle: steriod suspending solution): 36 % of control
T/C (dose: 67.5 mg/kg/injection, schedule: Q01DX007 (sc), vehicle: steriod suspending solution): 60 % of control
T/C (dose: 80.0 mg/kg/injection, schedule: Q01DX007 (sc), vehicle: steriod suspending solution): 53 % of control
T/C (dose: 90.0 mg/kg/injection, schedule: Q01DX007 (sc), vehicle: steriod suspending solution): 31 % of control
T/C (dose: 100.0 mg/kg/injection, schedule: Q01DX007 (sc), vehicle: steriod suspending solution): 26 % of control
T/C (dose: 120.0 mg/kg/injection, schedule: Q01DX007 (sc), vehicle: steriod suspending solution): 51 % of control
T/C (dose: 135.0 mg/kg/injection, schedule: Q01DX007 (sc), vehicle: steriod suspending solution): 27 % of control
T/C (dose: 150.0 mg/kg/injection, schedule: Q01DX007 (sc), vehicle: steriod suspending solution): 54 % of control
T/C (dose: 180.0 mg/kg/injection, schedule: Q01DX007 (sc), vehicle: steriod suspending solution): 32 % of control
T/C (dose: 202.5 mg/kg/injection, schedule: Q01DX007 (sc), vehicle: steriod suspending solution): 24 % of control

CC1C[C@@H]2[C@H]([C@@H](O)C[C@@]3(C)[C@H]2CC[C@]3(O)C(=O)CF)[C@@]2(C)CCC(=O)C=C12 (stereo partly specified)
T/C (dose: 5.2 mg/kg/injection, schedule: Q01DX007 (sc), vehicle: steriod suspending solution): 106 % of control
T/C (dose: 10.5 mg/kg/injection, schedule: Q01DX007 (sc), vehicle: steriod suspending solution): 105 % of control
T/C (dose: 21.2 mg/kg/injection, schedule: Q01DX007 (sc), vehicle: steriod suspending solution): 81 % of control
T/C (dose: 42.5 mg/kg/injection, schedule: Q01DX007 (sc), vehicle: steriod suspending solution): 45 % of control
T/C (dose: 62.0 mg/kg/injection, schedule: Q#A X014 (sc), vehicle: steriod suspending solution): 55 % of control and 57 % of control
T/C (dose: 85.0 mg/kg/injection, schedule: Q01DX007 (sc), vehicle: steriod suspending solution): 25 % of control
T/C (dose: 93.5 mg/kg/injection, schedule: Q#A X014 (sc), vehicle: steriod suspending solution): 36 % of control and 41 % of control and 50 % of control
T/C (dose: 210.75 mg/kg/injection, schedule: Q#A X014 (sc), vehicle: steriod suspending solution): 38 % of control and 52 % of control
T/C (dose: 300.0 mg/kg/injection, schedule: Q01DX007 (sc), vehicle: steriod suspending solution): 26 % of control
T/C (dose: 600.0 mg/kg/injection, schedule: Q01DX007 (sc), vehicle: steriod suspending solution): 20 % of control

O=S(=O)(O)c1cccnc1
T/C (dose: 17.47 mg/kg/injection, schedule: Q#A X014 (ip), vehicle: carboxymethylcellulose (CMC)): 70 % of control
T/C (dose: 31.25 mg/kg/injection, schedule: Q#A X014 (ip), vehicle: carboxymethylcellulose (CMC)): 64 % of control
T/C (dose: 34.94 mg/kg/injection, schedule: Q#A X014 (ip), vehicle: carboxymethylcellulose (CMC)): 80 % of control
T/C (dose: 62.5 mg/kg/injection, schedule: Q#A X014 (ip), vehicle: carboxymethylcellulose (CMC)): 105 % of control
T/C (dose: 69.87 mg/kg/injection, schedule: Q#A X014 (ip), vehicle: carboxymethylcellulose (CMC)): 89 % of control
T/C (dose: 125.0 mg/kg/injection, schedule: Q#A X014 (ip), vehicle: carboxymethylcellulose (CMC)): 63 % of control
T/C (dose: 139.75 mg/kg/injection, schedule: Q#A X014 (ip), vehicle: carboxymethylcellulose (CMC)): 97 % of control
T/C (dose: 250.0 mg/kg/injection, schedule: Q#A X014 (ip), vehicle: carboxymethylcellulose (CMC)): 124 % of control

NNc1nnc(NN)c2ccccc12
T/C (dose: 31.25 mg/kg/injection, schedule: Q01DX007 (ip), vehicle: saline): 167 % of control
T/C (dose: 62.5 mg/kg/injection, schedule: Q01DX007 (ip), vehicle: saline): 176 % of control
T/C [3]: 119 % of control

NCC(O)c1ccc(O)c(O)c1 (stereo unspecified)
T/C (dose: 3.1 mg/kg/injection, schedule: Q01DX007 (ip), vehicle: saline): 84 % of control
T/C (dose: 12.5 mg/kg/injection, schedule: Q01DX007 (ip), vehicle: saline): 57 % of control and 77 % of control

CCCOP(=S)(N1CC1)N1CC1
T/C (dose: 6.65 mg/kg/injection, schedule: Q#A X014 (ip), vehicle: methylcellulose (MC)): 74 % of control
T/C (dose: 6.65 mg/kg/injection, schedule: Q#A X014 (ip), vehicle: saline): 80 % of control and 89 % of control
T/C [1]: 67 % of control
T/C [2]: 47 % of control
T/C (dose: 15.0 mg/kg/injection, schedule: Q#A X014 (ip), vehicle: saline): 37 % of control and 40 % of control

COc1cc2c3c(c4ccc(OC)c(OC)c4c2cc1OC)CN1CCC[C@@H]1C3
T/C (dose: 12.0 mg/kg/injection, schedule: Q01DX007 (ip), vehicle: water): 21 % of control

N#CCOC(=O)CCC(NC(=O)OCc1ccccc1)C(N)=O (stereo unspecified)
T/C (dose: 50.0 mg/kg/injection, schedule: Q01DX007 (ip), vehicle: carboxymethylcellulose (CMC)): 94 % of control

CNC=O
T/C (dose: 19.87 mg/kg/injection, schedule: Q#A X014 (ip), vehicle: carboxymethylcellulose (CMC)): 107 % of control
T/C (dose: 39.75 mg/kg/injection, schedule: Q#A X014 (ip), vehicle: carboxymethylcellulose (CMC)): 67 % of control
T/C (dose: 79.5 mg/kg/injection, schedule: Q#A X014 (ip), vehicle: carboxymethylcellulose (CMC)): 23 % of control
T/C (dose: 100.0 mg/kg/injection, schedule: Q#A X014 (ip), vehicle: saline): 20 % of control
T/C (dose: 120.0 mg/kg/injection, schedule: Q01DX007 (ip), vehicle: carboxymethylcellulose (CMC)): 19 % of control
T/C [3]: 8 % of control and 12 % of control
T/C (dose: 150.0 mg/kg/injection, schedule: Q01DX007 (ip), vehicle: carboxymethylcellulose (CMC)): 16 % of control
T/C (dose: 150.0 mg/kg/injection, schedule: Q01DX007 (ip), vehicle: saline): 4 % of control and 7 % of control
T/C (dose: 159.0 mg/kg/injection, schedule: Q#A X014 (ip), vehicle: carboxymethylcellulose (CMC)): 8 % of control
T/C (dose: 175.0 mg/kg/injection, schedule: Q01DX007 (ip), vehicle: saline): 1 % of control and 5 % of control
T/C (dose: 200.0 mg/kg/injection, schedule: Q01DX007 (ip), vehicle: carboxymethylcellulose (CMC)): 9 % of control
T/C (dose: 200.0 mg/kg/injection, schedule: Q01DX007 (ip), vehicle: saline): 2 % of control and 3 % of control and 26 % of control
T/C (dose: 225.0 mg/kg/injection, schedule: Q01DX007 (ip), vehicle: saline): 1 % of control and 3 % of control
T/C (dose: 250.0 mg/kg/injection, schedule: Q01DX007 (ip), vehicle: saline): 1 % of control and 2 % of control
T/C (dose: 275.0 mg/kg/injection, schedule: Q01DX007 (ip), vehicle: saline): 1 % of control
T/C (dose: 325.0 mg/kg/injection, schedule: Q01DX007 (ip), vehicle: saline): 1 % of control
T/C (dose: 400.0 mg/kg/injection, schedule: Q01DX007 (ip), vehicle: saline): 24 % of control

CCN(CC)P(=S)(N1CC1)N1CC1
T/C (dose: 25.0 mg/kg/injection, schedule: Q01DX007 (ip), vehicle: other): 3 % of control
T/C (dose: 50.0 mg/kg/injection, schedule: Q01DX007 (ip), vehicle: other): 31 % of control
T/C (dose: 100.0 mg/kg/injection, schedule: Q01DX007 (ip), vehicle: other): 1 % of control
T/C (dose: 220.0 mg/kg/injection, schedule: Q01DX007 (ip), vehicle: saline): 25 % of control
